Experimental findings from patent US12115251B2, “Hydrocortisone acetate suppository formulation for treatment of disease” (Cristcot LLC, priority 2015, dated 2024) are described below.

The data set is classed as physicochemical. On the procedure:
In order to assess the API release profile from the prototypes in Example 4 to identify a lead formulation, a robust dissolution method was developed. Solubility studies were performed on the API for the selection of dissolution media. For these studies, the active concentration of the dissolution media was 0.1 milligrams per milliliter (mg/mL).
According to USP guidelines (on sink conditions) the solubility needs to be at least 3 times the proposed active concentration. […] The studies next turned to the use of higher hydrocortisone acetate concentrations (0.3 mg/mL).
In order to avoid ionization of the hydrocortisone acetate in the dissolution media, a buffer of pH 5.0 was used in combination with 5% w/v SLS. The final composition of the dissolution media was 5% w/v SLS:acetate buffer (pH 5.0) in 70:30 combination with the pH of the final combination adjusted to 6.8-7.0.

In the case of `CC(=O)OCC(=O)[C@@]1(O)CC[C@H]2[C@@H]3CCC4=CC(=O)CC[C@]4(C)[C@H]3[C@@H](O)C[C@@]21C` [hydrocortisone acetate], the average recovered solubility is recorded as 98.4%. In addition, the “% Solubility API” value (pH 7.2) stood at 4.1%.
